Entries after “also recorded” stand apart in the source; their conditions may differ.
Tests used:
[1] = Estriol absorbed, urine level after topical estriol cream; type: in vivo, Macaca mulatta; conditions: OVX rhesus monkeys, daily 0.3% estriol topical cream, urine collected just prior to catheterization, n = 5
Protocol: Repeat slow intracoronary infusions of 1 ml over 30 seconds of the combination of serotonin and U46619 in this 100:1 molar ratio were used, adjusted for body weight (0.2 mg/kg) to produce coronary blood levels of 6.7 μM serotonin and 67 nM U46619. The levels of these two components were based on calculated coronary flow dilution.

[2] = target: T1, estrogen receptor beta (ERβ/D22 interaction) (Homo sapiens, UniProt Q92731); test: ERβ coactivator fluorescence polarization assay; type: biochemical; conditions: 0.038 nM to 1240 nM, triplicate, FIG. 3
T1 construct: purchased PanVera/Invitrogen (Invitrogen Corp., Carlsbad, Calif.)
T1 sequence (Q92731 whole entry): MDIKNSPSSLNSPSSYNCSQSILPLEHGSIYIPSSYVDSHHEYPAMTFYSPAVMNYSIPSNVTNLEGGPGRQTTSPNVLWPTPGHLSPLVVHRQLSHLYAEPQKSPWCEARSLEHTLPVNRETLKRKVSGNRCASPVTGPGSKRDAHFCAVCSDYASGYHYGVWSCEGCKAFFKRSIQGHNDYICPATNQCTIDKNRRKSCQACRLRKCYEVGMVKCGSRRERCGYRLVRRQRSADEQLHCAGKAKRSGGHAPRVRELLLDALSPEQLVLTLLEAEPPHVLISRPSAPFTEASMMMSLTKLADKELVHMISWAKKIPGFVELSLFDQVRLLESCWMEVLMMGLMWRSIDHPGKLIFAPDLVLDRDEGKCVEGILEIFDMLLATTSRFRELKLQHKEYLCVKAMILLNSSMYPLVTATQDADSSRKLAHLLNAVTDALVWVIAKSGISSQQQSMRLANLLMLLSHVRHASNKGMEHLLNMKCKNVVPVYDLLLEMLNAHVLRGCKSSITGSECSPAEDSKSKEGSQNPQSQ
Protocol: An estrogen receptor beta coactivator fluorescence polarization assay was performed by PanVera/Invitrogen discovery screening applying the company's ERβ Coactivator Assay Kit (Invitrogen Corp., Carlsbad, Calif.) using fluorescence polarization with known estrogen receptor ligands (estradiol, ICI182,780, tamoxifen, and OH-tamoxifen) and test compounds (estriol, 3βAdiol, and epiestriol).
Data on the X-axis of the graph of FIG. 3 are represented as log of concentrations from 0.038 nM to 1240 nM tested for each of the perspective ligands. The ligand concentration that produces a half-maximal increase or decrease in polarization equals the ligand EC50 for the ERβ/D22 interaction. The ordinate Y-axis, mP, indicates fluorescence polarization units. Increase in polarization indicates agonist activity. Conversely, a decrease in polarization indicates antagonist activity. The date represent mean +/− standard deviation of the polarization values from the assay performed in triplicate.

[3] = test system: VMC isolated from OVX monkeys; test: Ca2+ response to S+U of cultured VMC isolated from estriol-treated OVX monkeys (Fluo3 imaging); type: cell-based, rhesus monkey; conditions: VMC from OVX monkeys treated 4 weeks with daily transdermal estriol, cultured 2 weeks
From the text: Hearts or major blood vessels are removed at necropsy from rhesus monkeys sacrificed for other purposes and are immediately immersed in cold ionic solution for mammals (ISM2). ISM2 contains, in mM, 100 NaCl, 16 NaHCO3, 0.5 NaH2PO4, 4.7 KCl, 1.8 CaCl2, 0.4 MgCl2, 0.4 HgSO4, 50 HEPES, and 5.5 dextrose, at pH 7-3 to 7.4. Single cells are enzymatically dissociated in a multi-step process for hearts and coronary arteries are dissected from the anterior and posterior walls of the ventricles and the atrioventricular sulcus. The coronary artery segments are cleaned and then cut into small pieces and rinsed in culture solution for mammals—5th generation (CV5M) for 10 min, followed by potassium glutamate (KG) solution for 10 min, both at room temperature. CV5M contains 4.0 mM L-glutamine, 100 μg/mL ciprofloxacin, 50 mM HEPES (pH 7.3), and 16 mM NaHCO3 dissolved in 90% MEM-Earles's salts and 10% horse serum. KG solution contains, in mM, 140 K-glutamate, 50 HEPES (pH 7.3), 16 NaH2PO4, and 16.5 dextrose. […]
Enzyme exposure is minimized by cold and added serum. […] The remaining cells in suspension are counted and concentrated to ˜100,000 living cells/ml by centrifugation, and re-suspended in CV5M at 37° C. […]

[4] = test system: coronary arteries of ovariectomized rhesus monkeys; test: Drug-induced (serotonin + U46619) coronary vasospasm in ovariectomized rhesus monkeys, coronary angiography; type: in vivo, Macaca mulatta
Protocol: Six adult ovariectomized (OVX) female rhesus monkeys (Macaca mulatta) were employed in the studies described below. None of the monkeys had been exposed to high cholesterol diets and all were later verified to lack evidence of cardiovascular disease. […] The monkeys were entered into the study no less than 3 months after ovariectomy.
Angiography after overnight fasting began with preanesthesia with ketamine (10 mg/kg body weight intramuscular), intubation with an endotracheal tube and a light surgical plane of anesthesia with isoflurane (induced at 1.5% to 3% maintained at 0.75% to 1.25%), vaporized with 33% nitrous oxide and 67% oxygen, or with 100% oxygen. Bilateral femoral intraarterial 3F catheters allowed for coronary catheterization and continuous recording of systemic arterial blood pressure and heart rate, which were maintained close to the initial anesthetic value for each monkey. […] A heating pad assisted in maintenance of a body temperature decrease ≦2° C. of preanesthesia body temperature (monitored by rectal thermometer). An electrocardiogram (ECG) recorded on a Gould eight-channel recorder, cutaneous arterial oxygen saturation, respiratory rate and end-tidal CO2 were also monitored.
Entire experiments were recorded on videotape (with episodic fluoroscopic imaging and continuous voice annotation) to permit computerized quantitative coronary angiography. […]
Placement of the 3F catheter was adjusted to provide sufficient filling with radio-opaque contrast medium, limited reflux and isolation of a branch of the coronary arterial tree. […] Fluoroscopic images were recorded on film using an OEC model 9800 digital x-ray system with fluoroscopic C-arm, digitally recorded, and evaluated in subsequent analysis. All procedures including a brief 0.2 ml injection of Hexabrix for optimal quantitative angiography were recorded on videotape for subsequent computer analysis. […]
After 4 weeks of daily treatment with 0.2 mg/kg of the estriol topical cream, the monkeys were studied by coronary catheterization, and reactivity was assessed by injection of serotonin (100 μM) and U46619 (1 μM). […]

rhesus coronary VMC = test: Ca2+ responses to S+U in rhesus coronary VMC after in vitro treatment (Fluo3 imaging); type: cell-based, rhesus monkey; conditions: for Ca2+ signal in response to 15 sec S+U (protection): FIG. 4; for Ca2+ response to S+U (protected state vs control): FIG. 6, p<0.05
From the text: Hearts or major blood vessels are removed at necropsy from rhesus monkeys sacrificed for other purposes and are immediately immersed in cold ionic solution for mammals (ISM2). ISM2 contains, in mM, 100 NaCl, 16 NaHCO3, 0.5 NaH2PO4, 4.7 KCl, 1.8 CaCl2, 0.4 MgCl2, 0.4 HgSO4, 50 HEPES, and 5.5 dextrose, at pH 7-3 to 7.4. Single cells are enzymatically dissociated in a multi-step process for hearts and coronary arteries are dissected from the anterior and posterior walls of the ventricles and the atrioventricular sulcus. The coronary artery segments are cleaned and then cut into small pieces and rinsed in culture solution for mammals—5th generation (CV5M) for 10 min, followed by potassium glutamate (KG) solution for 10 min, both at room temperature. CV5M contains 4.0 mM L-glutamine, 100 μg/mL ciprofloxacin, 50 mM HEPES (pH 7.3), and 16 mM NaHCO3 dissolved in 90% MEM-Earles's salts and 10% horse serum. KG solution contains, in mM, 140 K-glutamate, 50 HEPES (pH 7.3), 16 NaH2PO4, and 16.5 dextrose.
The coronary artery tissue is then incubated at 37° C. for 60 min in an enzyme solution (430 U/ml collagenase and 2 U/ml elastase with 2 mg/ml bovine serum albumin and 100 μM Ca^2+ in 10 ml of 37° C. KG) with slow stirring. The supernatant is transferred to 25 ml of 4° C. KG holding solution with 10% horse serum (KG-H), and 10 ml of enzyme solution is added to the remaining un-dispersed tissue fragments. This enzymatic treatment is repeated three times.
Enzyme exposure is minimized by cold and added serum. Holding solutions (with 10% serum) containing the dispersed cells are centrifuged at 200 G and 4° C. for 5 min. After the supernatant is removed, the cells are re-suspended in 5 ml of 37° C. CV5M and incubated for 1 hr at 37° C. to permit preferential attachment of fibroblasts. The remaining cells in suspension are counted and concentrated to ˜100,000 living cells/ml by centrifugation, and re-suspended in CV5M at 37° C. VMC are then seeded on clean glass coverslips in culture plates, and maintained undisturbed in 95% air-5% CO2 and 95% humidity at 37° C. for attachment for 12 hr, and then flooded with CV5M. Cells from the suspension are also similarly seeded in growth optimized culture flasks and flooded with CV5M after 12 hr.
Media changes to a 1% medium (CV5MM, identical to CV5M except the concentration of horse serum is 1 %) are used to reduce growth factors after 2-4 days. Strict pH control (7.3-7.4) at each temperature (4° and 37° C.) is maintained by recognition and allowance for the temperature coefficient of the HEPES buffer. Subculture of cells is performed by brief trypsinization, followed by neutralization of trypsin, wash in media, reconstitution of cell suspension in medium with 1% serum, and plating onto culture plates and coverslips. For Ca^2+ imaging experiments, VMC from primary culture are used.
Imaging of intracellular Ca^2+ changes is performed using the fluorescent indicator, Fluo3. Glass coverslips with attached VMC are placed into 300 μL LF 922 laminar flow chambers on the stage of a Zeiss Axiovert 200M microscope, and suffused with ISM2 continuously at 1 mL/min. Live cell fluorescent data acquisition is performed with a photon counting Hamamatsu VIM camera in conjunction with image processing software. Briefly, VMC are loaded with 3 μM Fluo3 for 10 min (stopped flow), then washed (continuously suffused) with ISM2 for 5 min. VMC are exposed for stimulation to a combination of serotonin and U46619, a stabile thromboxane A2 mimetic. This combination, containing serotonin at a concentration of 10 μM and U46619 at a concentration of 100 nM, is referred to as S+U. The VMC are exposed to the S+U combination for 15 sec (stopped flow), and then continuously suffused with ISM2.

For `C[C@]12CC[C@@H]3c4ccc(O)cc4CC[C@H]3[C@@H]1C[C@@H](O)[C@@H]2O` [estriol], which “E3 absorbed, urine (total)” value [1] is on record?
The value was “***2412 +/− 316 (n = 5) ng/ml”.

What about the “Estrogen beta receptor agonist activity (increase in polarization)” value [2] of the same molecule?
Its value is “estrogen beta agonists”.

And the “Ca2+ response state after S+U challenge” value ([3]; 15 sec S+U stimulus, FIG. 2)?
Its value is “protected state”.

What about the “Duration of Ca2+ spike after S+U challenge” value ([3]; declining after 2 min to nearly baseline) of the same molecule?
The value was 10 to 30 s.

And the “Vasospasm criteria met (incidence)” value ([4]; OVX rhesus monkeys, 4 weeks daily 0.3% estriol topical cream, intracoronary serotonin + U46619, criteria <33% of control diameter for >5 minutes)?
Its value is 0/6.

What about the “Protection against coronary vasospasm” value ([4]; OVX rhesus monkeys, 4 weeks daily estriol topical cream, serotonin + U46619 challenge) of the same molecule?
The value was “protected against vasospasm; also recorded: protection against coronary vasospasm by administration of estriol was categorical”.

What about the “Minimum diameter of coronary arteries following S+U provocative stimulus” value ([4]; estriol cream treated OVX monkeys vs untreated OVX, FIG. 1, p<0.05) of the same molecule?
The value was “indicative of protection against provoked vasospasm”.

What about the “Ca2+ signal in response to 15 sec S+U (protection)” value (from here on “Ca2+ signal … (protection)”) (rhesus coronary VMC; 72 hours treatment at 1 nM) of the same molecule?
The value was “protective”.

What about the “Protection relative to the other agonists” value (rhesus coronary VMC; 72 hours, 1 nM estriol vs 300 pM 3βAdiol and 1 nM epiestriol, FIG. 4, p<0.05) of the same molecule?
Its value is “weaker”.

For `C[C@]12CC[C@H](O)C[C@@H]1CC[C@@H]1[C@@H]2CC[C@]2(C)[C@@H](O)CC[C@@H]12` [3βAdiol, 5α-androstan-3β,17β-diol], which “Estrogen beta receptor agonist activity (increase in polarization)” value [2] is on record?
Its value is “beta receptor activity similar to that of estriol and estradiol”.

What about the “Protection relative to genistein and DPN” value (rhesus coronary VMC; 300 pM 3βAdiol vs 10 nM genistein and 1 nM DPN, FIG. 6) of the same molecule?
The value was “superior”.

And the “Ca2+ response to S+U (protected state vs control)” value (rhesus coronary VMC; 300 pM)?
Its value is “produced a protected state”.

And the “Ca2+ signal … (protection)” value (rhesus coronary VMC; 72 hours treatment at 300 pM)?
Its value is “protection with estriol was found to be weaker than the estrogen beta receptor selective agonists 3βAdiol and epiestriol”.

What about the “Ca2+ response to S+U” value (rhesus coronary VMC; concentrations greater than 30 pM (range tested 30 pM to 3 nM), FIG. 5) of the same molecule?
Its value is “a protected state was established”.

With `C[C@]12CC[C@@H]3c4ccc(O)cc4CC[C@H]3[C@@H]1C[C@H](O)[C@@H]2O` [epiestriol] as the molecule, how does the “Estrogen beta receptor agonist activity (increase in polarization)” value [2] read?
Its value is “beta receptor activity similar to that of estriol and estradiol”.

What about the “Ca2+ signal … (protection)” value (rhesus coronary VMC; 72 hours treatment at 1 nM) of the same molecule?
The value was “protection with estriol was found to be weaker than the estrogen beta receptor selective agonists 3βAdiol and epiestriol”.

What does the source list for `CC[C@@H]1Cc2cc(O)ccc2C2=C1c1ccc(O)cc1C[C@H]2CC` [RRTHC, RR-tetrahydrochrysene]?
Ca2+ signal in response to 15 sec S+U (exaggerated hyperreactive state) (rhesus coronary VMC; 1 to 6 hour treatment with RRTHC, FIG. 7B): not; Ca2+ signal in response to 15 sec S+U (rhesus coronary VMC; 72 hours in RRTHC in vitro, FIG. 7B, p<0.05): exaggerated hyperreactive state beyond control; Effect on protection by 72 hour 300 pM 3βAdiol (Ca2+ signal after S+U) (rhesus coronary VMC; RRTHC 30 μM, 3 hours prior to and during 3βAdiol, FIG. 7A, p<0.05): blocked

With `N#CC(Cc1ccc(O)cc1)c1ccc(O)cc1` (stereo not drawn) [DPN, diarylpropionitrile] as the molecule, how does the “Ca2+ response to S+U (protected state vs control)” value (rhesus coronary VMC; 1 nM) read?
Its value is “produced a protected state”.

For `O=c1c(-c2ccc(O)cc2)coc2cc(O)cc(O)c12` [genistein], which “Ca2+ response to S+U (protected state vs control)” value (rhesus coronary VMC; 10 nM) is on record?
The value was “produced a protected state”.
